Patent US10617119B1, “Piscicide composition” (priority 2018, dated 2020)

System: Koi
Assay: Feeding of toxic pellets to Koi in aquatic tanks (consumption, mortality)
Type: in vivo
Conditions: juvenile Koi

Structure (SMILES)	mortality / toxicity
[O]=[Ca] [calcium oxide]	did not kill Koi
CC(=O)Nc1ccc(O)cc1 [acetaminophen]	None of the Koi died
